Test results: ChEMBL document CHEMBL4842358, “Design, synthesis and biological evaluation of sphingosine-1-phosphate receptor 2 antagonists as potent 5-FU-resistance reversal agents for the treatment of colorectal cancer” (Eur J Med Chem, 2021)
The source made the active and inactive calls. The rule behind the calls is not given here.

Legend:
[1] = AUC (0 to t) in Sprague-Dawley rat blood at 1 mg/kg, iv measured for 24 hrs by LC-MS/MS analysis; assay type: ADME, organism-based; design: time 24 hrs, dose 1 mg/kg
[2] = Half life in Sprague-Dawley rat blood at 1 mg/kg, iv measured for 24 hrs by LC-MS/MS analysis; assay type: ADME, organism-based
[3] = Initial drug concentration in Sprague-Dawley rat blood at 1 mg/kg, iv by LC-MS/MS analysis; assay type: ADME, organism-based
[4] = Initial plasma concentration in Sprague-Dawley rat at 1 mg/kg, iv by LC-MS/MS analysis; assay type: ADME, organism-based
Mus musculus [5] = assay: Downregulation of DPD expression in liver of athymic nude mouse xenografted with human SW620/5-FU at 1.08 mg/kg/day, iv administered for 24 days in presence of 5-FU and measured on day 24 by immunohistochemistry; assay type: functional, organism-based; conditions: time 24.0 day
Mus musculus [6] = assay: Downregulation of DPD expression in tumour of athymic nude mouse xenografted with human SW620/5-FU at 1.08 mg/kg/day, iv administered for 24 days in presence of 5-FU and measured on day 24 by immunohistochemistry; assay type: functional, organism-based; conditions: time 24.0 day
[7] = Toxicity in athymic nude mouse xenografted with human SW620/5-FU cells assessed as histopathological changes in liver at 1.08 mg/kg/day, iv administered for 24 days in presence of 5-FU and measured on day 24 by immunohistochemistry; assay type: organism-based; conditions: in vivo, 576 h, time 24 day
Mus musculus [8] = assay: Downregulation of DPD expression in liver of athymic nude mouse xenografted with human SW620/5-FU at 1.08 mg/kg/day, iv administered for 24 days in presence of 5-FU and measured on day 24 by Western blot assay; assay type: functional, organism-based; conditions: time 24.0 day
Mus musculus [9] = assay: Downregulation of DPD expression in tumour of athymic nude mouse xenografted with human SW620/5-FU at 1.08 mg/kg/day, iv administered for 24 days in presence of 5-FU and measured on day 24 by Western blot assay; assay type: functional, organism-based; conditions: time 24.0 day
SW620/5-FU = assay: Antitumour activity against human SW620/5-FU cells xenografted in athymic nude mouse assessed as inhibition of tumour growth at 1.08 mg/kg/day, iv administered for 24 days; assay type: functional; conditions: 576 h, time 24 day, read-out: TGI
[10] = Reversal of 5-FU resistance against human SW620/5-FU cells xenografted in athymic nude mouse assessed as potentiation of 5-FU induced antitumor activity by measuring inhibition of tumor growth at 1.08 mg/kg/day, iv administered for 24 days in presence of 5-FU (reference value: 18.54%); assay type: functional; conditions: 576 h, time 24 day, read-out: TGI
[11] = Toxicity in athymic nude mouse xenografted with human SW620/5-FU cells assessed as changes in body weight at 1.08 mg/kg/day, iv administered for 24 days in presence of 5-FU and measured for every 4 days; assay type: organism-based; conditions: in vivo, 576 h, time 24 day
[12] = target: T1, Sphingosine 1-phosphate receptor 2 (Homo sapiens, UniProt O95136); assay: Binding affinity to S1PR2 (unknown origin) assessed as association constant measured for 60 secs by surface plasmon resonance assay; conditions: filed as antagonist, time 60.0 sec
T1 sequence (O95136 whole entry): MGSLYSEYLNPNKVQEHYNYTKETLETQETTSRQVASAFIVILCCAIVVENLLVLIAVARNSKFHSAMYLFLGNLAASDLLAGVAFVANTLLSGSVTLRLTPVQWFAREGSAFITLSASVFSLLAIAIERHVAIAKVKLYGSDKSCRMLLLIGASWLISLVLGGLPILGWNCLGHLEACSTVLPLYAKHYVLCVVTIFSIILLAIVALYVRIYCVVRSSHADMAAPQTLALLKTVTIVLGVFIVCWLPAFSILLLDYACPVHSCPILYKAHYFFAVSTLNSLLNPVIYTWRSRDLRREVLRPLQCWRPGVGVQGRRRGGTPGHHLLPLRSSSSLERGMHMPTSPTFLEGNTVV

[13] = target: T1, Sphingosine 1-phosphate receptor 2; assay: Binding affinity to S1PR2 (unknown origin) assessed as dissociation constant measured for 60 secs by surface plasmon resonance assay
[14] = target: T1, Sphingosine 1-phosphate receptor 2; assay: Binding affinity to S1PR2 (unknown origin) measured by surface plasmon resonance assay; conditions: filed as antagonist
[15] = Reversal of 5-FU resistance against human SW620/5-FU cells assessed as inhibition of cell proliferation measured after 72 hrs in presence of 5-FU by MTT assay; assay type: functional, cell-based
HCT-116 = assay: Reversal of 5-FU resistance against human HCT-116 cells overexpressing DPD assessed as inhibition of cell proliferation measured after 72 hrs in presence of 5-FU by MTT assay; assay type: functional, cell-based; conditions: HCT-116, 72 h
NCM460 = assay: Cytotoxicity against human NCM460 cells assessed as cell viability measured after 72 hrs in presence of 5-FU by MTT assay; assay type: cell-based; conditions: NCM460, 72 h
[16] = target: T1, Sphingosine 1-phosphate receptor 2; assay: Antagonist activity at S1PR2 in human SW620/5-FU cells assessed as downregulation of DPD expression by western blot analysis; assay type: functional, cell-based; conditions: filed as antagonist
[17] = target: T1, Sphingosine 1-phosphate receptor 2; assay: Antagonist activity at S1PR2 in human HCT-116 cells overexpressing DPD assessed as downregulation of DPD expression by western blot analysis; assay type: functional, cell-based; conditions: filed as antagonist, dose 0.16-2.5 µM
[18] = target: T1, Sphingosine 1-phosphate receptor 2; assay: Antagonist activity at S1PR2 in human HCT-116 cells overexpressing DPD assessed as downregulation of JMJD3 expression at 0.16 to 2.5 uM measured by western blot assay; assay type: functional, cell-based; conditions: filed as antagonist, dose 0.16-2.5 µM
[19] = target: T1, Sphingosine 1-phosphate receptor 2; assay: Antagonist activity at S1PR2 in human SW620/5-FU cells assessed as downregulation of JMJD3 expression at 0.16 to 2.5 uM measured by western blot assay; assay type: functional, cell-based; conditions: filed as antagonist, dose 0.16-2.5 µM
[20] = Downregulation of S1PR2 expression in human HCT-116 cells overexpressing DPD at 0.16 to 2.5 uM cells measured by western blot assay; assay type: ADME, cell-based; conditions: hct-116, 2.5 µM, dose 0.16-2.5 µM
[21] = Downregulation of human S1PR2 expression in human SW620/5-FU cells at 0.16 to 2.5 uM cells measured by western blot assay; assay type: ADME, cell-based; conditions: dose 0.16-2.5 µM
[22] = target: T1, Sphingosine 1-phosphate receptor 2; assay: Antagonist activity at S1PR2 in human SW620/5-FU cells assessed as reduction of DPD-catalyzed 5-FU degradation by measuring intracellular 5-FU level at 2 uM measured after 6 hrs by HPLC-UV analysis; assay type: functional, cell-based; conditions: filed as antagonist
[23] = target: T1, Sphingosine 1-phosphate receptor 2; assay: Antagonist activity at S1PR2 in human SW620/5-FU cells assessed as reduction of DPD-catalyzed 5-FU degradation by measuring intracellular FBAL level at 2 uM measured after 6 hrs by HPLC-UV analysis; assay type: functional, cell-based; conditions: filed as antagonist
[24] = target: T1, Sphingosine 1-phosphate receptor 2; assay: Antagonist activity at S1PR2 in human SW620/5-FU cells assessed as reduction in dosage of 5-FU at 0.5 to 2.5 uM measured after 6 hrs by HPLC-UV analysis; assay type: functional, cell-based; conditions: filed as antagonist, dose 0.5-2.5 µM
[25] = Stability in mouse liver microsomes assessed as parent compound remaining at 2 umol/L measured after 60 mins in presence of NADPH regenerating system by LC-MS/MS analysis; assay type: ADME, Microsome; conditions: dose 2 µmol/L, read-out: Stabilty
[26] = Stability in rat liver microsomes assessed as parent compound remaining at 2 umol/L measured after 60 mins in presence of NADPH regenerating system by LC-MS/MS analysis; assay type: ADME, Microsome; conditions: dose 2 µmol/L, read-out: Stabilty
[27] = Half life in Sprague-Dawley rat plasma at 1 mg/kg, iv measured for 24 hrs by LC-MS/MS analysis; assay type: ADME, organism-based
[28] = AUC (0 to t) in Sprague-Dawley rat plasma at 1 mg/kg, iv measured for 24 hrs by LC-MS/MS analysis; assay type: ADME, organism-based; design: dose 1 mg/kg, time 24 hrs
[29] = AUC (0 to infinity) in Sprague-Dawley rat blood at 1 mg/kg, iv by LC-MS/MS analysis; assay type: ADME, organism-based; design: route intravenous, time infinity, dose 1 mg/kg
[30] = AUC (0 to infinity) in Sprague-Dawley rat plasma at 1 mg/kg, iv by LC-MS/MS analysis; assay type: ADME, organism-based; design: time infinity, route intravenous, dose 1 mg/kg
[31] = Volume of distribution in Sprague-Dawley rat blood at 1 mg/kg, iv measured for 24 hrs by LC-MS/MS analysis; assay type: ADME, organism-based
[32] = Volume of distribution in Sprague-Dawley rat plasma at 1 mg/kg, iv measured for 24 hrs by LC-MS/MS analysis; assay type: ADME, organism-based
[33] = Clearance in Sprague-Dawley rat blood at 1 mg/kg, iv measured for 24 hrs by LC-MS/MS analysis; assay type: ADME, organism-based
[34] = Clearance in Sprague-Dawley rat plasma at 1 mg/kg, iv measured for 24 hrs by LC-MS/MS analysis; assay type: ADME, organism-based
[35] = Mean residence time (0 to t) in Sprague-Dawley rat blood at 1 mg/kg, iv measured for 24 hrs by LC-MS/MS analysis; assay type: ADME, organism-based
[36] = Mean residence time (0 to t) in Sprague-Dawley rat plasma at 1 mg/kg, iv measured for 24 hrs by LC-MS/MS analysis; assay type: ADME, organism-based
[37] = Mean residence time (0 to infinity) in Sprague-Dawley rat blood at 1 mg/kg, iv by LC-MS/MS analysis; assay type: ADME, organism-based
[38] = Mean residence time (0 to infinity) in Sprague-Dawley rat plasma at 1 mg/kg, iv by LC-MS/MS analysis; assay type: ADME, organism-based
[39] = Ratio of drug level in Sprague-Dawley rat blood to plasma at 1 mg/kg, iv measured for 24 hrs by LC-MS/MS analysis; assay type: ADME, organism-based; conditions: blood and plasma
Mus musculus [40] = assay: Downregulation of DPD expression in colon of athymic nude mouse xenografted with human SW620/5-FU cells at 1.08 mg/kg/day, iv administered for 24 days in presence of 5-FU and measured on day 24 by immunohistochemistry; assay type: functional, organism-based; conditions: time 24.0 day

O=C(Nc1cc(Cl)nc(Cl)c1)Nc1cc(Cl)nc(Cl)c1
AUC(0-t) at 24 h [1]: 1890 ng·h/mL | half-life [2]: 4.4 h | C0 [3]: 489 ng/mL | C0 [4]: 1110 ng/mL | inhibition (Mus musculus [5]): Active | inhibition (Mus musculus [6]): Active | Activity [7]: Non-Toxic | inhibition (Mus musculus [8]): Active | inhibition (Mus musculus [9]): Active | inhibition in vivo at 1.08 mg/kg/day (SW620/5-FU): 7.5% | inhibition in vivo at 1.08 mg/kg/day [10]: 66.2% | Activity [11]: Non-Toxic | Ka [12]: 5.28 10^6/M/s | Dissociation rate constant (koff) [13]: 6.97 10^-1/s | K [14]: 1.32 10^-8M | EC50 [15]: 210 nM | EC50 (HCT-116): 180 nM | EC50 (NCM460): 9440 nM | inhibition [16]: Dose-Dependent Effect | inhibition [17]: Dose-Dependent Effect | inhibition [18]: Active | inhibition [19]: Active | Activity [20]: Non-Toxic | Activity [21]: Non-Toxic | Activity [22]: 10 mg/L | Activity [23]: 0.17 mg/L | inhibition [24]: Active | remaining at 1 h, 2 µM [25]: 97.9% | remaining at 1 h, 2 µM [26]: 95.2% | half-life [27]: 4.7 h | AUC(0-t) at 24 h [28]: 3840 ng·h/mL | AUC(0-inf) [29]: 1950 ng·h/mL | AUC(0-inf) [30]: 3960 ng·h/mL | Vd [31]: 3.3 L/kg | Vd [32]: 1.7 L/kg | clearance [33]: 8.5 mL/min/kg | clearance [34]: 4.17 mL/min/kg | MRT last at 24 h [35]: 6 h | MRT last at 24 h [36]: 6.2 h | MRT inf [37]: 6.7 h | MRT inf [38]: 7 h | blood plasma ratio at 24 h [39]: 0.484 | inhibition (Mus musculus [40]): Active
